Source: ChEMBL document CHEMBL5537147, “Development of membrane-targeting TPP+-chloramphenicol conjugates to combat methicillin-resistant staphylococcus aureus (MRSA) infections” (Eur J Med Chem, 2024)

Assays:
Acinetobacter baumannii [1] = assay: Antibacterial activity against Acinetobacter baumannii 1310 assessed as inhibition of bacterial growth incubated for 16 to 18 hrs by CLSI based two-fold serial dilution method; format: functional; details: time 16-18 hrs
Pseudomonas aeruginosa [2] = assay: Antibacterial activity against Pseudomonas aeruginosa 535 assessed as inhibition of bacterial growth incubated for 16 to 18 hrs by CLSI based two-fold serial dilution method; format: functional; details: time 16-18 hrs
Staphylococcus aureus [3] = assay: Antibacterial activity against methicillin-resistant Staphylococcus aureus USA300 assessed as inhibition of bacterial growth incubated for 16 to 18 hrs by CLSI based two-fold serial dilution method; format: functional; details: time 16-18 hrs
Pseudomonas aeruginosa [4] = assay: Antibacterial activity against Pseudomonas aeruginosa 408 assessed as inhibition of bacterial growth incubated for 16 to 18 hrs by CLSI based two-fold serial dilution method; format: functional; details: time 16-18 hrs
Staphylococcus aureus [5] = assay: Antibacterial activity against methicillin-resistant Staphylococcus aureus 330041 assessed as inhibition of bacterial growth incubated for 16 to 18 hrs by CLSI based two-fold serial dilution method; format: functional; details: time 16-18 hrs
[6] = Cytotoxicity against human L02 cells assessed as inhibition of cell growth incubated for 24 hrs by MTT assay; format: toxicity, cell-based
Acinetobacter baumannii [7] = assay: Antibacterial activity against Acinetobacter baumannii 1309 assessed as inhibition of bacterial growth incubated for 16 to 18 hrs by CLSI based two-fold serial dilution method; format: functional; details: time 16-18 hrs
Staphylococcus aureus [8] = assay: Antibacterial activity against methicillin-resistant Staphylococcus aureus 3390 assessed as inhibition of bacterial growth incubated for 16 to 18 hrs by CLSI based two-fold serial dilution method; format: functional; details: time 16-18 hrs
Staphylococcus aureus [9] = assay: Antibacterial activity against methicillin-resistant Staphylococcus aureus 3392 assessed as inhibition of bacterial growth incubated for 16 to 18 hrs by CLSI based two-fold serial dilution method; format: functional; details: time 16-18 hrs

Row | Compound | MIC (Acinetobacter baumannii [1]) | MIC (Pseudomonas aeruginosa [2]) | MIC (Staphylococcus aureus [3]) | MIC (Pseudomonas aeruginosa [4]) | MIC (Staphylococcus aureus [5]) | IC50 at 24 h [6] | MIC (Acinetobacter baumannii [7]) | MIC (Staphylococcus aureus [8]) | MIC (Staphylococcus aureus [9])
1 | O=C(O)CC[P+](c1ccccc1)(c1ccccc1)c1ccccc1.[Br-] | > 64 µg/mL | > 64 µg/mL | > 64 µg/mL | > 64 µg/mL | > 64 µg/mL | > 64 µg/mL | > 64 µg/mL | > 64 µg/mL | > 64 µg/mL
2 | Br.O=C(CCCCC[P+](c1ccccc1)(c1ccccc1)c1ccccc1)OC[C@H](NC(=O)C(Cl)Cl)[C@H](O)c1ccc([N+](=O)[O-])cc1 | > 64 µg/mL | > 64 µg/mL | 8 µg/mL | > 64 µg/mL | 16 µg/mL | > 64 µg/mL | > 64 µg/mL | 16 µg/mL | 8 µg/mL
3 | O=C(O)CCCCCCCCCCC[P+](c1ccccc1)(c1ccccc1)c1ccccc1.[Br-] | > 64 µg/mL | > 64 µg/mL | > 64 µg/mL | > 64 µg/mL | > 64 µg/mL | > 64 µg/mL | > 64 µg/mL | > 64 µg/mL | > 64 µg/mL
4 | Br.O=C(CCCCCCCCC[P+](c1ccccc1)(c1ccccc1)c1ccccc1)O[C@H](c1ccc([N+](=O)[O-])cc1)[C@H](CO)NC(=O)C(Cl)Cl | > 64 µg/mL | > 64 µg/mL | 1 µg/mL | > 64 µg/mL | 1 µg/mL | < 32 µg/mL | > 64 µg/mL | 1 µg/mL | 2 µg/mL
5 | Br.O=C(CCCCCn1cc(C[P+](c2ccc(F)cc2)(c2ccc(F)cc2)c2ccc(F)cc2)nn1)OC[C@H](NC(=O)C(Cl)Cl)[C@H](O)c1ccc([N+](=O)[O-])cc1 | > 64 µg/mL | > 64 µg/mL | 16 µg/mL | > 64 µg/mL | 16 µg/mL | > 64 µg/mL | > 64 µg/mL | 16 µg/mL | 16 µg/mL
6 | COc1cccc([P+](CCCCCCCCCC(=O)O)(c2cccc(OC)c2)c2cccc(OC)c2)c1.[Br-] | > 64 µg/mL | > 64 µg/mL | 32 µg/mL | 64 µg/mL | 32 µg/mL | 15.4 µg/mL | 64 µg/mL | 32 µg/mL | 16 µg/mL
7 | O=C(O)CCCCCCCCC[P+](c1ccc(F)cc1)(c1ccc(F)cc1)c1ccc(F)cc1.[Br-] | > 64 µg/mL | > 64 µg/mL | > 64 µg/mL | > 64 µg/mL | > 64 µg/mL | > 64 µg/mL | > 64 µg/mL | > 64 µg/mL | > 64 µg/mL
8 | O=C(O)CCCCCCCCC[P+](c1cccc(F)c1)(c1cccc(F)c1)c1cccc(F)c1.[Br-] | > 64 µg/mL | > 64 µg/mL | > 64 µg/mL | > 64 µg/mL | > 64 µg/mL | > 64 µg/mL | > 64 µg/mL | > 64 µg/mL | > 64 µg/mL
9 | O=C(O)CCCCCCCCC[P+](c1ccccc1)(c1ccccc1)c1ccccc1.[Br-] | > 64 µg/mL | > 64 µg/mL | > 64 µg/mL | > 64 µg/mL | > 64 µg/mL | > 64 µg/mL | > 64 µg/mL | > 64 µg/mL | > 64 µg/mL
10 | O=C(O)CCCCCCCCCCCCCCCCC[P+](c1ccccc1)(c1ccccc1)c1ccccc1.[Br-] | > 64 µg/mL | > 64 µg/mL | > 64 µg/mL | > 64 µg/mL | > 64 µg/mL | > 64 µg/mL | > 64 µg/mL | > 64 µg/mL | > 64 µg/mL
11 | Br.O=C(CCCCCCCCC[P+](c1ccc(Cl)cc1)(c1ccc(Cl)cc1)c1ccc(Cl)cc1)OC[C@H](NC(=O)C(Cl)Cl)[C@H](O)c1ccc([N+](=O)[O-])cc1 | > 64 µg/mL | > 64 µg/mL | 0.5 µg/mL | > 64 µg/mL | 0.5 µg/mL | 16.4 µg/mL | > 64 µg/mL | 0.5 µg/mL | 0.5 µg/mL
12 | Br.O=C(CCCC[P+](c1ccccc1)(c1ccccc1)c1ccccc1)OC[C@H](NC(=O)C(Cl)Cl)[C@H](O)c1ccc([N+](=O)[O-])cc1 | > 64 µg/mL | > 64 µg/mL | 8 µg/mL | > 64 µg/mL | 16 µg/mL | > 64 µg/mL | > 64 µg/mL | 8 µg/mL | 8 µg/mL
13 | Br.O=C(CCCCCCCCC[P+](c1ccc(C(F)(F)F)cc1)(c1ccc(C(F)(F)F)cc1)c1ccc(C(F)(F)F)cc1)OC[C@H](NC(=O)C(Cl)Cl)[C@H](O)c1ccc([N+](=O)[O-])cc1 | > 64 µg/mL | > 64 µg/mL | 1 µg/mL | > 64 µg/mL | 1 µg/mL | > 32 µg/mL | > 64 µg/mL | 1 µg/mL | 1 µg/mL
14 | Br.Cc1ccc([P+](CCCCCCCCCC(=O)OC[C@H](NC(=O)C(Cl)Cl)[C@H](O)c2ccc([N+](=O)[O-])cc2)(c2ccc(C)cc2)c2ccc(C)cc2)cc1 | > 64 µg/mL | > 64 µg/mL | 0.5 µg/mL | > 64 µg/mL | 0.5 µg/mL | 14.7 µg/mL | > 64 µg/mL | 0.5 µg/mL | 0.5 µg/mL
15 | O=C(O)CCCC[P+](c1ccccc1)(c1ccccc1)c1ccccc1.[Br-] | > 64 µg/mL | > 64 µg/mL | > 64 µg/mL | > 64 µg/mL | > 64 µg/mL | > 64 µg/mL | > 64 µg/mL | > 64 µg/mL | > 64 µg/mL
16 | Br.O=C(CC[P+](c1ccccc1)(c1ccccc1)c1ccccc1)OC[C@H](NC(=O)C(Cl)Cl)[C@H](O)c1ccc([N+](=O)[O-])cc1 | > 64 µg/mL | > 64 µg/mL | > 64 µg/mL | > 64 µg/mL | > 64 µg/mL | > 64 µg/mL | > 64 µg/mL | > 64 µg/mL | > 64 µg/mL
17 | Cc1ccc([P+](CCCCCCCCCC(=O)O)(c2ccc(C)cc2)c2ccc(C)cc2)cc1.[Br-] | > 64 µg/mL | > 64 µg/mL | > 64 µg/mL | > 64 µg/mL | > 64 µg/mL | 23.1 µg/mL | > 64 µg/mL | > 64 µg/mL | > 64 µg/mL
18 | O=C(O)CCCCCn1cc(C[P+](c2ccc(F)cc2)(c2ccc(F)cc2)c2ccc(F)cc2)nn1.[Br-] | > 64 µg/mL | > 64 µg/mL | > 64 µg/mL | > 64 µg/mL | > 64 µg/mL | > 64 µg/mL | > 64 µg/mL | > 64 µg/mL | > 64 µg/mL
19 | Br.O=C(COCCOCCOCC[P+](c1ccc(F)cc1)(c1ccc(F)cc1)c1ccc(F)cc1)OC[C@@H](NC(=O)C(Cl)Cl)[C@@H](O)c1ccc([N+](=O)[O-])cc1 | > 64 µg/mL | > 64 µg/mL | 8 µg/mL | > 64 µg/mL | 8 µg/mL | > 64 µg/mL | > 64 µg/mL | 8 µg/mL | 8 µg/mL
20 | Br.O=C(CCCCCCCCCCCCCCCCC[P+](c1ccccc1)(c1ccccc1)c1ccccc1)OC[C@H](NC(=O)C(Cl)Cl)[C@H](O)c1ccc([N+](=O)[O-])cc1 | > 64 µg/mL | > 64 µg/mL | 2 µg/mL | > 64 µg/mL | 2 µg/mL | 7.9 µg/mL | > 64 µg/mL | 2 µg/mL | 2 µg/mL
21 | Br.O=C(CCCCCCCCCCC[P+](c1ccccc1)(c1ccccc1)c1ccccc1)OC[C@H](NC(=O)C(Cl)Cl)[C@H](O)c1ccc([N+](=O)[O-])cc1 | > 64 µg/mL | > 64 µg/mL | 2 µg/mL | > 64 µg/mL | 2 µg/mL | 16.5 µg/mL | > 64 µg/mL | 2 µg/mL | 2 µg/mL
22 | Br.CN(C)c1ccc([P+](CCCCCCCCCC(=O)OC[C@H](NC(=O)C(Cl)Cl)[C@H](O)c2ccc([N+](=O)[O-])cc2)(c2ccc(N(C)C)cc2)c2ccc(N(C)C)cc2)cc1 | 32 µg/mL | 16 µg/mL | 1 µg/mL | 4 µg/mL | 1 µg/mL | 12.4 µg/mL | 16 µg/mL | 1 µg/mL | 1 µg/mL
23 | Br.O=C(CCCCCCC[P+](c1ccccc1)(c1ccccc1)c1ccccc1)OC[C@H](NC(=O)C(Cl)Cl)[C@H](O)c1ccc([N+](=O)[O-])cc1 | > 64 µg/mL | > 64 µg/mL | 2 µg/mL | > 64 µg/mL | 2 µg/mL | > 64 µg/mL | > 64 µg/mL | 2 µg/mL | 2 µg/mL
24 | O=C(O)c1cn(C2CC2)c2cc(N3CCNCC3)c(F)cc2c1=O [CIPROFLOXACIN] | – | – | – | – | – | > 64 µg/mL | – | – | –
25 | O=C(O)CCCCCCCCC[P+](c1ccc(Cl)cc1)(c1ccc(Cl)cc1)c1ccc(Cl)cc1.[Br-] | > 64 µg/mL | > 64 µg/mL | > 64 µg/mL | > 64 µg/mL | > 64 µg/mL | 30.8 µg/mL | > 64 µg/mL | > 64 µg/mL | > 64 µg/mL
26 | Br.COc1ccc([P+](CCCCCCCCCC(=O)OC[C@H](NC(=O)C(Cl)Cl)[C@H](O)c2ccc([N+](=O)[O-])cc2)(c2ccc(OC)cc2)c2ccc(OC)cc2)cc1 | > 64 µg/mL | > 64 µg/mL | 2 µg/mL | > 64 µg/mL | 1 µg/mL | 23.5 µg/mL | > 64 µg/mL | 2 µg/mL | 2 µg/mL
27 | O=C(O)CCCCCCCCC[P+](c1ccc(C(F)(F)F)cc1)(c1ccc(C(F)(F)F)cc1)c1ccc(C(F)(F)F)cc1.[Br-] | > 64 µg/mL | > 64 µg/mL | > 64 µg/mL | > 64 µg/mL | > 64 µg/mL | > 64 µg/mL | > 64 µg/mL | > 64 µg/mL | > 64 µg/mL
